± gives the expanded uncertainty stated by the source.
Details: 101.33 kPa, Liquid; for speed of sound: Sing-around technique in a fixed-path interferometer

mass density (288.15 K) [kg/m3]	speed of sound (288.15 K) [m/s]	mass density (293.15 K) [kg/m3]	speed of sound (293.15 K) [m/s]	mass density (298.15 K) [kg/m3]	speed of sound (298.15 K) [m/s]	mass density (303.15 K) [kg/m3]	speed of sound (303.15 K) [m/s]	mass density (308.15 K) [kg/m3]	speed of sound (308.15 K) [m/s]	Structure (SMILES)
813.24 ± 0.4	1273.7 ± 1.7	809.48 ± 0.4	1257 ± 1.7	805.67 ± 0.4	1239.8 ± 1.7	801.85 ± 0.4	1222.7 ± 1.7	797.99 ± 0.41	1205.9 ± 1.7	CCCCO [butan-1-ol]
745.79 ± 0.27	1082.4 ± 1.2	740.6 ± 0.28	1059.4 ± 1.2	735.35 ± 0.28	1036.1 ± 1.2	730.06 ± 0.28	1013 ± 1.2	724.73 ± 0.29	990.1 ± 1.1	COC(C)(C)C [2-methoxy-2-methylpropane]
663.87 ± 0.68	1121.4 ± 1.3	659.44 ± 0.69	1099 ± 1.3	654.95 ± 0.7	1076.3 ± 1.2	650.4 ± 0.7	1053.6 ± 1.2	645.82 ± 0.71	1031.1 ± 1.2	CCCCCC [hexane]

Source: the NIST ThermoML archive (doi:10.1016/j.jct.2007.02.002)
